Assay results as given in PubChem BioAssay (NCI).
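Here, GI50 denotes the concentration required for 50% inhibition of growth. TGI: total growth inhibition.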

Experiments:
Assay in all cases: DTP human tumour cell line panel, 384-well format
[1] = test system: HT29 colon
[2] = test system: KM12 colon
[3] = test system: OVCAR-3 ovarian
[4] = test system: HOP-92 NSCLC
[5] = test system: NCI-H322M lung
[6] = test system: SK-MEL-28 melanoma
[7] = test system: NCI/ADR-RES ovarian
[8] = test system: MDA-MB-231 breast
[9] = test system: CAKI-1 renal
[10] = test system: SNB-19 CNS
[11] = test system: NCI-H460 NSCLC
[12] = test system: IGROV1 ovarian
[13] = test system: K-562 leukemia
[14] = test system: RXF 393 renal
[15] = test system: MALME-3M melanoma
[16] = test system: OVCAR-4 ovarian
[17] = test system: MOLT-4 leukemia
[18] = test system: SN12C renal
[19] = test system: PC-3 prostate
[20] = test system: UACC-257 melanoma
[21] = test system: OVCAR-5 ovarian
[22] = test system: SF-295 CNS
[23] = test system: HS 578T breast
[24] = test system: HCT-116 colon
[25] = test system: HCT-15 colon
[26] = test system: LOX IMVI melanoma
[27] = test system: T-47D breast
[28] = test system: M14 melanoma
[29] = test system: NCI-H226 lung
[30] = test system: UACC-62 melanoma
[31] = test system: HOP-62 NSCLC
[32] = test system: HL-60(TB) leukemia
[33] = test system: BT-549 breast
[34] = test system: MCF7 breast
[35] = test system: 786-0 renal
[36] = test system: RPMI-8226 leukemia
[37] = test system: COLO 205 colon
[38] = test system: ACHN renal
[39] = test system: NCI-H23 lung
[40] = test system: UO-31 renal
[41] = test system: OVCAR-8 ovarian
[42] = test system: DU-145 prostate
[43] = test system: NCI-H522 lung
[44] = test system: SK-MEL-5 melanoma
[45] = test system: EKVX NSCLC
[46] = test system: CCRF-CEM leukemia
[47] = test system: TK-10 renal
[48] = test system: SK-OV-3 ovarian
[49] = test system: SNB-75 CNS
[50] = test system: A498 renal
[51] = test system: MDA-MB-435 melanoma
[52] = test system: HCC-2998 colon
[53] = test system: A549 NSCLC

Compound `COc1cc(S(C)(=O)=O)ccc1Nc1nc2ccc(-c3ccc(NC(=O)[C@H](C)c4ccc(F)cc4)cc3)cn2n1` has a GI50 [1] of 0.602 µM, a TGI [1] greater than 100 µM and a GI50 [2] of 61.7 µM. For the same compound, the TGI [2] was greater than 100 µM, the GI50 [3] was greater than 100 µM and the TGI [3] was greater than 100 µM. For the same compound, the GI50 [4] was 42.1 µM, the TGI [4] was greater than 100 µM and the GI50 [5] was greater than 100 µM. It also gave a TGI [5] greater than 100 µM, a GI50 [6] greater than 100 µM and a TGI [6] greater than 100 µM. For the same compound, the GI50 [7] was 1.4 µM, the TGI [7] was greater than 100 µM and the GI50 [8] was greater than 100 µM. It also gave a TGI [8] greater than 100 µM, a GI50 [9] greater than 100 µM and a TGI [9] greater than 100 µM. It also gave a GI50 [10] greater than 100 µM, a TGI [10] greater than 100 µM and a GI50 [11] of 0.0406 µM. For the same compound, the TGI [11] was greater than 100 µM, the GI50 [12] was greater than 100 µM and the TGI [12] was greater than 100 µM. The GI50 [13] was 0.777 µM, the TGI [13] was greater than 100 µM and the GI50 [14] was 0.0742 µM. For the same compound, the TGI [14] was 6.48 µM, the GI50 [15] was 58.2 µM and the TGI [15] was greater than 100 µM. It also gave a GI50 [16] greater than 100 µM, a TGI [16] greater than 100 µM and a GI50 [17] of 0.0201 µM. For the same compound, the TGI [17] was 0.0417 µM, the GI50 [18] was greater than 100 µM and the TGI [18] was greater than 100 µM. The GI50 [19] was 69 µM, the TGI [19] was greater than 100 µM and the GI50 [20] was greater than 100 µM. It also gave a TGI [20] greater than 100 µM, a GI50 [21] greater than 100 µM and a TGI [21] greater than 100 µM. For the same compound, the GI50 [22] was greater than 100 µM, the TGI [22] was greater than 100 µM and the GI50 [23] was 17.4 µM. The TGI [23] was greater than 100 µM, the GI50 [24] was 0.0642 µM and the TGI [24] was greater than 100 µM. It also gave a GI50 [25] of 0.0587 µM, a TGI [25] greater than 100 µM and a GI50 [26] of 0.053 µM. For the same compound, the TGI [26] was greater than 100 µM, the GI50 [27] was 4.78 µM and the TGI [27] was greater than 100 µM. It also gave a GI50 [28] greater than 100 µM, a TGI [28] greater than 100 µM and a GI50 [29] greater than 100 µM. For the same compound, the TGI [29] was greater than 100 µM, the GI50 [30] was greater than 100 µM and the TGI [30] was greater than 100 µM. The GI50 [31] was 0.0771 µM, the TGI [31] was greater than 100 µM and the GI50 [32] was 0.0454 µM. For the same compound, the TGI [32] was greater than 100 µM, the GI50 [33] was 32.5 µM and the TGI [33] was greater than 100 µM. It also gave a GI50 [34] of 4.61 µM, a TGI [34] greater than 100 µM and a GI50 [35] of 1.73 µM. It also gave a TGI [35] greater than 100 µM, a GI50 [36] of 0.137 µM and a TGI [36] greater than 100 µM. The GI50 [37] was 0.0428 µM, the TGI [37] was greater than 100 µM and the GI50 [38] was greater than 100 µM. For the same compound, the TGI [38] was greater than 100 µM, the GI50 [39] was greater than 100 µM and the TGI [39] was greater than 100 µM. The GI50 [40] was 22.4 µM, the TGI [40] was greater than 100 µM and the GI50 [41] was 1.19 µM. For the same compound, the TGI [41] was greater than 100 µM, the GI50 [42] was 5.41 µM and the TGI [42] was greater than 100 µM. For the same compound, the GI50 [43] was greater than 100 µM, the TGI [43] was greater than 100 µM and the GI50 [44] was 1.54 µM. It also gave a TGI [44] greater than 100 µM, a GI50 [45] greater than 100 µM and a TGI [45] greater than 100 µM. For the same compound, the GI50 [46] was 0.0293 µM, the TGI [46] was 0.0694 µM and the GI50 [47] was greater than 100 µM. It also gave a TGI [47] greater than 100 µM, a GI50 [48] greater than 100 µM and a TGI [48] greater than 100 µM. The GI50 [49] was 75.9 µM, the TGI [49] was greater than 100 µM and the GI50 [50] was greater than 100 µM. It also gave a TGI [50] greater than 100 µM, a GI50 [51] greater than 100 µM and a TGI [51] greater than 100 µM. For the same compound, the GI50 [52] was greater than 100 µM, the TGI [52] was greater than 100 µM and the GI50 [53] was 0.0517 µM. It also gave a TGI [53] greater than 100 µM.
